The nature of this data set: physchem. The note with it: 25 °C, pH 4, aqueous buffer, thermodynamic from solid.

Where only a bound is given, the exact number is not on record here.

The term solubility denotes the dissolved amount per volume that the medium holds. Read a low solubility as little dissolved substance.

Method: 25 mg compound are placed in 2 ml solvent. […] Thereafter, the solution or suspension is filtered and the remaining solution is analyzed via HPLC. The solubility is determined by comparison of the total area of the substance peak to a calibration curve (external standard).
Thereafter, the solution was centrifuged and analyzed via HPLC. The solubility was determined by comparison of the total area of the substance peak to a calibration curve (external standard). The measurements were conducted in triplicates.

For `CCc1c(N2CC[C@H](O)C2=O)cccc1S(=O)(=O)N[C@@H](CNC(=O)c1ccc(Cl)s1)C(=O)OCCc1nccn1C.Cl` [Example 2, 2-(1-Methyl-1H-imidazol-2-yl)ethyl 3-[(5-chlorothiophene-2-carbonyl)amino]-N-{2-ethyl-3-[(3S)-3-hydroxy-2-oxopyrrolidin-1-yl]benzene-1-sulfonyl}-S-alaninate hydrochloride], the solubility is over 500 mg/mL.
